Assays:
[1] = biological target: T1, alpha 2A (h) (antagonist radioligand) (Homo sapiens, UniProt P08913); assay: Receptor protein binding studies, alpha 2A
T1 sequence (P08913 1-465): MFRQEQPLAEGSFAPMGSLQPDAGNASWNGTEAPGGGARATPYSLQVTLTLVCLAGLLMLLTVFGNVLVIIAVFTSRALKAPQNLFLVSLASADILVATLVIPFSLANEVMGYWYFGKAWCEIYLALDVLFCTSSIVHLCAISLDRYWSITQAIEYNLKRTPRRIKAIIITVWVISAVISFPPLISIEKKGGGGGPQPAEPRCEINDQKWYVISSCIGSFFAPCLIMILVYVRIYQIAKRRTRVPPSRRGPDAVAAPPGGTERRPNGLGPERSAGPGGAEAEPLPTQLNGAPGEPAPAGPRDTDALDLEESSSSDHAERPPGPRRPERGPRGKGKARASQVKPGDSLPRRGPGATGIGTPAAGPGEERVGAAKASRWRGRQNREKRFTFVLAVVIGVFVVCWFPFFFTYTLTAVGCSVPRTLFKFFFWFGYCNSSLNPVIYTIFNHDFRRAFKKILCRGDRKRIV
Excerpt: (§1) The four 3,11b trans-dihydrotetrabenazine isomers (+)-α, (−)-α, (+)-β and (−)-β were subjected to specific binding assays to test their ability to bind to the receptors and transporter proteins described below. The results are set out in Table 1

[2] = biological target: T2, alpha 2C (h) (antagonist radioligand) (Homo sapiens, UniProt P18825); assay: Receptor protein binding studies, alpha 2C
T2 sequence (P18825 1-462): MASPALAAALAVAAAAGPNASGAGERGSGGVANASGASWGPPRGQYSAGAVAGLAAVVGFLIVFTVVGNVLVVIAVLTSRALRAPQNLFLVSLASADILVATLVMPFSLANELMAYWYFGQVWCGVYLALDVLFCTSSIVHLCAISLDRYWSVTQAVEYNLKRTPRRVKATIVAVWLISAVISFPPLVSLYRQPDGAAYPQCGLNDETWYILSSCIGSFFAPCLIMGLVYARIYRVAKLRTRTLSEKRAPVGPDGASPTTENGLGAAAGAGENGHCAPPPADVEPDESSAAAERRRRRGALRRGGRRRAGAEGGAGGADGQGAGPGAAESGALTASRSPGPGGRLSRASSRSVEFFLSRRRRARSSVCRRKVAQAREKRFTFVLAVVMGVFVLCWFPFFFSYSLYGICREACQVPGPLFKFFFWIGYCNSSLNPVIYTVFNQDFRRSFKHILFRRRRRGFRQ
Excerpt: as §1

[3] = biological target: T3, D4.4 (h) (antagonist radioligand) (Homo sapiens, UniProt P21917); assay: Receptor protein binding studies, D4.4; settings: read-out: % Inhibition of specific binding
T3 sequence (P21917 1-419): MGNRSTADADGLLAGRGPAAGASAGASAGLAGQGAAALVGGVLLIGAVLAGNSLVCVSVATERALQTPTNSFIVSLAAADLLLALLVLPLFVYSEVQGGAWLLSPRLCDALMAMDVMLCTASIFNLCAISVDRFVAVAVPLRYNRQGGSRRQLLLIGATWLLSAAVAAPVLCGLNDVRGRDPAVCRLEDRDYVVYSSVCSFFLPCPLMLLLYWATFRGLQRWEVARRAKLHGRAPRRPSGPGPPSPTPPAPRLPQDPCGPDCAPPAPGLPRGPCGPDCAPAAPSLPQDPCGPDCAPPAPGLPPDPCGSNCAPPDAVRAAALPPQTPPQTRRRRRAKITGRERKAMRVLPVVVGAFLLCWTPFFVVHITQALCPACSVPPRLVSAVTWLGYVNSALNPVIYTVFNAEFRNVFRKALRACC
Excerpt: as §1

[4] = test system: I2 (antagonist radioligand); assay: Receptor protein binding studies, I2
Excerpt: as §1

[5] = biological target: T4, 5-HT1A(h) (agonist radioligand) (Homo sapiens, UniProt P08908); assay: Receptor protein binding studies, 5-HT1A
T4 sequence (P08908 1-422): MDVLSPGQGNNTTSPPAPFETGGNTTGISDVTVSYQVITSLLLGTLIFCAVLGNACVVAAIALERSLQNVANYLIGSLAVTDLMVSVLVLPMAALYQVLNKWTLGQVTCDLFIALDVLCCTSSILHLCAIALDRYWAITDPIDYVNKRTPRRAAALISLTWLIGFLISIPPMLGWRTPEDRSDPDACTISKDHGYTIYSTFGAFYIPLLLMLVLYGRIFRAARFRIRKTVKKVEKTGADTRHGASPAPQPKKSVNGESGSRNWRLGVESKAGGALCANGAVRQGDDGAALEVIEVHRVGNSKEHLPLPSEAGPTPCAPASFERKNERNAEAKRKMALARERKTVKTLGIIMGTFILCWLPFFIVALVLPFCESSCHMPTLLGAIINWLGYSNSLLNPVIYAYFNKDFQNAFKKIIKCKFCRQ
Excerpt: as §1

[6] = biological target: 5-HT2B (h) (agonist radioligand) (Homo sapiens, UniProt P41595); assay: Receptor protein binding studies, 5-HT2B
Excerpt: as §1

[7] = biological target: hERG (membrane preparation) (antagonist radioligand) (Homo sapiens, UniProt Q12809); assay: Receptor protein binding studies, hERG
Excerpt: as §1

Sequence of hERG (membrane preparation) (antagonist radioligand) (Q12809 whole entry): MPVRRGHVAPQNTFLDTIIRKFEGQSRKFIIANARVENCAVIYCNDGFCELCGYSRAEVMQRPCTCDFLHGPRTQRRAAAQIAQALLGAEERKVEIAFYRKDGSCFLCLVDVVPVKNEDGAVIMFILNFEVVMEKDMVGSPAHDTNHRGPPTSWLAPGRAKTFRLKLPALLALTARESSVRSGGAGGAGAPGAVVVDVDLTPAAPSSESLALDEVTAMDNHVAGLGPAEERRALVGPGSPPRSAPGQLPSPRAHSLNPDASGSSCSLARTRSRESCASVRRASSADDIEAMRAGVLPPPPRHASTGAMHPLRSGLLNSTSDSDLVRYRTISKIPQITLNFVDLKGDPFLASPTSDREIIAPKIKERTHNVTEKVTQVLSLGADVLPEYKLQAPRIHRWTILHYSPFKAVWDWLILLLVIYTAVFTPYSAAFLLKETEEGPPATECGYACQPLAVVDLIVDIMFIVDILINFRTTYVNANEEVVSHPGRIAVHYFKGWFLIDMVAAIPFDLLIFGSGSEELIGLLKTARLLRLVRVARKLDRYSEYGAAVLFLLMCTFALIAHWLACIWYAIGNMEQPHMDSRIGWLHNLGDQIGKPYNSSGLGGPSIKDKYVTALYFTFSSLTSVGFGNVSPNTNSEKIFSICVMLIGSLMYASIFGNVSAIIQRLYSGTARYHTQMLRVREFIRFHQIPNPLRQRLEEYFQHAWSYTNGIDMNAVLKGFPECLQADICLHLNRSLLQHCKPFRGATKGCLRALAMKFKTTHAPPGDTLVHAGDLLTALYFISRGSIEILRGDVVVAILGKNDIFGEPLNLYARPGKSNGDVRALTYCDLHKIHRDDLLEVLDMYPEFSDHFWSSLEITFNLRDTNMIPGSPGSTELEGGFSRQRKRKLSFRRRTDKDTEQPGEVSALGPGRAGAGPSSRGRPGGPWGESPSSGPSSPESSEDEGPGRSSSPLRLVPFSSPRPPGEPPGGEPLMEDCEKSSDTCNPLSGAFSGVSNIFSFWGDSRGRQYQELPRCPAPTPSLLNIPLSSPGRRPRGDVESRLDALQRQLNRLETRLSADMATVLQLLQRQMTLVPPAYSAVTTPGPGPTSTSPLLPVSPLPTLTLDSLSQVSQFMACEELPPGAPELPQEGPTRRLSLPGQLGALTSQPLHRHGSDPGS
Sequence of 5-HT2B (h) (agonist radioligand) (P41595 whole entry): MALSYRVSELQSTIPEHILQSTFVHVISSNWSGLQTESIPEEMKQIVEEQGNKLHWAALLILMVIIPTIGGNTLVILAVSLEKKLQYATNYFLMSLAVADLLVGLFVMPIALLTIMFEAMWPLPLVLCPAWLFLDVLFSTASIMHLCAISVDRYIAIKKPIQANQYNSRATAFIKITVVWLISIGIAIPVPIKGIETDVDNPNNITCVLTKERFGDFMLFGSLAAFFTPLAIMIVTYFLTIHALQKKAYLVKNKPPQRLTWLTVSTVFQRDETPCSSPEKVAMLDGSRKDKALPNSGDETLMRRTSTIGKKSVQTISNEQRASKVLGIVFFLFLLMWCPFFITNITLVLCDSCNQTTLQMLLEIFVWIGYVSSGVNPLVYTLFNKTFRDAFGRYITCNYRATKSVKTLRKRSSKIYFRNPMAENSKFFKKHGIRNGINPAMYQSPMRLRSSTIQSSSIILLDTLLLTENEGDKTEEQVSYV

Structure (SMILES): COc1cc2c(cc1OC)[C@@H]1C[C@@H](O)[C@@H](CC(C)C)CN1CC2 [(−)-Beta, (2S,3R,11bR)-3-isobutyl-9,10-dimethoxy-1,3,4,6,7,11b-hexahydro-2H-pyrido[2,1,a]isoquinolin-2-ol]
- activity at the alpha 2A receptor (in words) [1]: potent antagonists
- activity at the alpha 2C receptor (in words) [2]: potent antagonists
- inhibition at 10 µM ([3]; CONC 1.0E−05 (unit inferred), 10 μM): 99%
- inhibition at 1 µM ([3]; CONC 1.0E−06 (unit inferred), 1 μM): 87%
- % Inhibition of specific binding ([4]; CONC 1.0E−05 (unit not given)): 37%
- % Inhibition of specific binding ([4]; CONC 1.0E−06 (unit not given)): 11%
- activity at the 5-HT 1A receptor (in words) [5]: potent agonists
- activity at the 5-HT 2B receptor (in words) [6]: potent agonists
- % Inhibition of specific binding ([7]; CONC 1.0E−05 (unit not given)): 64%
- % Inhibition of specific binding ([7]; CONC 1.0E−06 (unit not given)): −1%
